Values quoted from earlier work in patent US11357858B2, “Pharmaceutical compositions for the treatment of postoperative pain” (FIDIA FARMACEUTICI S.P.A., priority 2018, dated 2022).
Counter-ions that a name gives are not always drawn.

Settings: in vivo

CCCN1CCCC[C@H]1C(=O)Nc1c(C)cccc1C [ropivacaine HCl]
maximum dose which can be administered without the onset of side effects: about 2.5 mg/kg
